Data on 27 compounds can be found in US11999746B2, “Compounds” (GlaxoSmithKline Intellectual Property Development Limited, priority 2014, dated 2024).

The assay deals with T1, Lp-PLA2 in human plasma (Homo sapiens, UniProt Q13093).
T1 construct: from tissue; host or cells: pooled human plasma
T1 sequence (Q13093 22-441): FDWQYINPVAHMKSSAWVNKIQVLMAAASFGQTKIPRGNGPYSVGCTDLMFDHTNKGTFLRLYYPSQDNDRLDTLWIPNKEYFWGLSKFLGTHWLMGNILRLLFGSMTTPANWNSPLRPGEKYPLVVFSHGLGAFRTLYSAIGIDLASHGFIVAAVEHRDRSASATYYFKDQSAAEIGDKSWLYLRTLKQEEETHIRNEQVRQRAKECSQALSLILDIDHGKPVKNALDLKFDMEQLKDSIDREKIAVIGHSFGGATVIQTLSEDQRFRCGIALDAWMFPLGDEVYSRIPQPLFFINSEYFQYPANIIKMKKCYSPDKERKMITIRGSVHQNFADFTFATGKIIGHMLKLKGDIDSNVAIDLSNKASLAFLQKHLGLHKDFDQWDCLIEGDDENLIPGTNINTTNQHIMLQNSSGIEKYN
Nature of the assay: (3a) Lp-PLA2 human plasma Thio-PAF assay. It is filed as biochemical. Conditions: (3a) Thio-PAF assay, pooled human plasma; Examples 1-265 and 413-430 were tested here; read-out: pIC50 in the Lp-PLA2 human plasma assay (converted). An excerpt:
(3) Lipoprotein-Associated Phospholipase A2 (Lp-PLA2) Human Plasma Assay
The human plasma assay utilizes a thioester analog of PAF (phosphatidylcholine), where hydrolysis yields to the formation of a phospholipid containing a free thiol group. The amount of thiol is quantitated continuously by reacting with CPM (7-diethylamino-3-(4′-maleimidylphenyl)-4-methylcoumarin), a maleimide which increases in fluoresence after Michael addition of thiols. This assay may detect the activity of Lp-PLA2 in human plasma, as determined by specific inhibition by Lp-PLA2 inhibitors.
The thio-PAF assay was run as a quenched 15 μL assay. Compounds source plate was prepared by making 1:3 (by volume) serial dilution of the compounds into pure DMSO on 384-well microplate. 0.01 μL of compounds on compound source plate were transferred to 384 well Greiner 784076 (black) low-volume plates by ECHO liquid dispenser. 8 μL pooled human plasma, which was previously aliquoted and frozen, was added. Plates were centrifuged for 10 sec at 500 rpm. After 30 minutes preincubation, 2 μL of substrate solution comprising 2.5 mM 2-thio-PAF [from ethanol stock], 32 μM CPM [from a DMSO stock] and 3.2 mM NEM (N-ethylmaleimide) [made fresh daily in DMSO] in assay buffer of 50 mM HEPES, pH 7.4, 150 mM NaCl, 1 mM CHAPS was added to 384 well Greiner 784076 (black) low-volume plates by BRAVO liquid handling station. After 2 mins, reaction was quenched with 5 μL of 5% aqueous trifluoroacetic acid (TFA). Plates were covered to protect from light and incubated for 40 min at room temperature. Plates were read at ex: 380/em: 485 using Envision microplate reader. PIC50 data, curve and QC analysis were conducted by using XLFit module in Excel.
For the compound `O=c1nc(OCc2cc(F)c(F)cc2F)cc2n1C[C@H]1CCCCN21` [Example E225, (R)-3-((2,4,5-trifluorobenzyl)oxy)-6,7,8,9,9a,10-hexahydro-1H-pyrido[1′,2′:3,4]imidazo[1,2-c]pyrimidin-1-one], the IC50 was at most 10 µM. For `O=c1nc(OCc2cc(F)c(OC3(CCF)CC3)c(F)c2)cc2n1C[C@@H]1COCN21` [Example E193, (R)-6-((3,5-difluoro-4-(1-(2-fluoroethyl)cyclopropoxy)benzyl)oxy)-10,10a-dihydro-1H-oxazolo[3′,4′:3,4]imidazo[1,2-c]pyrimidin-8(3H)-one], the IC50 is at most 10 µM. Take `O=c1nc(OCc2cccc(F)c2)cc2n1C[C@@H]1CCCN21` [Example E214, (S)-3-((3-fluorobenzyl)oxy)-7,8,8a,9-tetrahydropyrrolo[1,2′:3,4]imidazo[1,2-c]pyrimidin-1(6H)-one]: the IC50 was at most 10 µM. As to `CCCCN1CC(Oc2c(F)cc(COc3cc4n(c(=O)n3)C[C@@H]3CCCN43)cc2F)C1` [Example E207, (S)-3-((4-((1-butylazetidin-3-yl)oxy)-3,5-difluorobenzyl)oxy)-7,8,8a,9-tetrahydropyrrolo[1′,2′:3,4]imidazo[1,2-c]pyrimidin-1(6H)-one], the IC50 is at most 10 µM. Regarding `O=c1nc(OCc2cc(F)c(OC3(CCF)CC3)c(F)c2)cc2n1C[C@H]1COCCN21` [Example E262, (S)-7-((3,5-difluoro-4-(1-(2-fluoroethyl)cyclopropoxy)benzyl)oxy)-3,4,11,11a-tetrahydropyrimido[6′,1′:2,3]imidazo[5,1-c][1,4]oxazin-9(1H)-one], the IC50 is at most 10 µM.

As for `O=c1nc(OCCc2cccc(F)c2)cc2n1C[C@H]1COCCN21` [Example E248, (S)-7-(3-fluorophenethoxy)-3,4,11,11a-tetrahydropyrimido[6′,1′:2,3]imidazo[5,1-c][1,4] oxazin-9(1H)-one], the IC50 was at most 10 µM.

Consider `O=c1nc(OCc2cc(F)c(OC3(CCF)CC3)c(F)c2)cc2n1C[C@@H]1COCCN21` [Example E258, (R)-7-((3,5-difluoro-4-(1-(2-fluoroethyl)cyclopropoxy)benzyl)oxy)-3,4,11,11a-tetrahydropyrimido[6′,1′:2,3]imidazo[5,1-c][1,4]oxazin-9(1H)-one], for which the IC50 was at most 10 µM. Next, `O=c1nc(OCCc2cccc(F)c2)cc2n1C[C@@H]1COCCN21` [Example E246, (R)-7-(3-fluorophenethoxy)-3,4,11,11a-tetrahydropyrimido[6′,1′:2,3]imidazo[5,1-c][1,4] oxazin-9(1H)-one]: at most 10 µM; `Cn1cc(Oc2c(F)cc(COc3cc4n(c(=O)n3)CC3OCCN43)cc2F)cn1` (single isomer, unassigned) [Example E189, 6-((3,5-difluoro-4-((1-methyl-1H-pyrazol-4-yl)oxy)benzyl)oxy)-10,10a-dihydro-2H-oxazolo[3′,2′:3,4]imidazo[1,2-c]pyrimidin-8(3H)-one]: at most 10 µM; `O=c1nc(OCc2cc(F)cc(F)c2)cc2n1CC1OCCN21` (stereo not drawn) [Example E184, 6-((3,5-Difluorobenzyl)oxy)-10,10a-dihydro-2H-oxazolo[3′,2′:3,4]imidazo[1,2-c]pyrimidin-8 (3H)-one]: at most 10 µM.

For `O=c1nc(OCc2cc(F)c(F)cc2F)cc2n1C[C@H]1COCCN21` [Example E220, (S)-7-((2,4,5-trifluorobenzyl)oxy)-3,4,11,11a-tetrahydropyrimido[6′,1′:2,3]imidazo[5,1-c] [1,4]oxazin-9(1H)-one], the IC50 was at most 10 µM.

Consider `O=c1nc(OCc2cc(F)c(OC3(CCF)CC3)c(F)c2)cc2n1C[C@H]1COCN21` [Example E197, (S)-6-((3,5-difluoro-4-(1-(2-fluoroethyl)cyclopropoxy)benzyl)oxy)-10,10a-dihydro-1H-oxazolo[3′,4′:3,4]imidazo[1,2-c]pyrimidin-8(3H)-one], for which the IC50 is at most 10 µM.

On to `O=c1nc(OCc2cccc(F)c2F)cc2n1C[C@@H]1COCN21` [Example E172, (R)-6-((2,3-difluorobenzyl)oxy)-10,10a-dihydro-1H-oxazolo[3′,4′:3,4]imidazo[1,2-c] pyrimidin-8(3H)-one], for which the IC50 is at most 10 µM.

In the case of `O=c1nc(OCc2cc(F)c(OC3(CCF)CC3)c(F)c2)cc2n1C[C@H]1CCOCN21` [Example E195, (R)-3-((3,5-difluoro-4-(1-(2-fluoroethyl)cyclopropoxy)benzyl)oxy)-8,9,9a,10-tetrahydropyrimido[6′,1′:2,3]imidazo[1,5-c][1,3]oxazin-1(6H)-one], the IC50 is at most 10 µM. Next, `N#Cc1ccc(CCOc2cc3n(c(=O)n2)C[C@H]2COCCN32)cc1` [Example E255, (S)-4-(2-((9-oxo-1,3,4,9,11,11a-hexahydropyrimido[6′,1′:2,3]imidazo[5,1-c][1,4]oxazin-7-yl)oxy)ethyl)benzonitrile]: at most 10 µM; `O=c1nc(OCc2ccc(F)cc2F)cc2n1C[C@@H]1COCN21` [Example E174, (R)-6-((2,4-difluorobenzyl)oxy)-10,10a-dihydro-1H-oxazolo[3′,4′:3,4]imidazo[1,2-c]pyrimidin-8(3H)-one]: at most 10 µM; `O=c1nc(OCc2cccc(F)c2)cc2n1C[C@@H]1COCN21` [Example E171, (R)-6-((3-fluorobenzyl)oxy)-10,10a-dihydro-1H-oxazolo[3′,4′:3,4]imidazo[1,2-c]pyrimidin-8(3H)-one]: at most 10 µM. Take `O=c1nc(OCc2cc(F)cc(F)c2)cc2n1C[C@@H]1COCN21` [Example E176, (R)-6-((3,5-difluorobenzyl)oxy)-10,10a-dihydro-1H-oxazolo[3′,4′:3,4]imidazo[1,2-c] pyrimidin-8(3H)-one]: the IC50 is at most 10 µM.

In the case of `O=c1nc(OCc2ccc(F)cc2F)cc2n1C[C@H]1COCN21` [Example E168, (S)-6-((2,4-difluorobenzyl)oxy)-10,10a-dihydro-1H-oxazolo[3′,4′:3,4]imidazo[1,2-c] pyrimidin-8(3H)-one], the IC50 is at most 10 µM.

For the compound `O=c1nc(OCc2cccc(F)c2F)cc2n1C[C@@H]1CCOCN21` [Example E183, (S)-3-((2,3-difluorobenzyl)oxy)-8,9,9a,10-tetrahydropyrimido[6′,1′:2,3]imidazo[1,5-c][1,3] oxazin-1(6H)-one], the IC50 was at most 10 µM. As to `O=c1nc(OCCc2cccc(F)c2)cc2n1C[C@H]1COCN21` [Example E186, (S)-6-(3-fluorophenethoxy)-10,10a-dihydro-1H-oxazolo[3′,4′:3,4]imidazo[1,2-c]pyrimidin-8(3H)-one], the IC50 is at most 10 µM. Take `O=c1nc(OCc2cccc(F)c2F)cc2n1CC1OCCN21` (stereo not drawn) [Example E187, 6-((2,3-Difluorobenzyl)oxy)-10,10a-dihydro-2H-oxazolo[3′,2′:3,4]imidazo[1,2-c]pyrimidin-8(3H)-one]: the IC50 is at most 10 µM. Next, `O=c1nc(OCc2ccc(F)cc2F)cc2n1C[C@@H]1CCOCN21` [Example E180, (S)-3-((2,4-difluorobenzyl)oxy)-8,9,9a,10-tetrahydropyrimido[6′,1′:2,3]imidazo[1,5-c][1,3]oxazin-1(6H)-one]: at most 10 µM. On to `O=c1nc(OCc2ccc(F)cc2F)cc2n1C[C@H]1CCOCN21` [Example E177, (R)-3-((2,4-difluorobenzyl)oxy)-8,9,9a,10-tetrahydropyrimido[6′,1′:2,3]imidazo[1,5-c][1,3] oxazin-1(6H)-one], for which the IC50 is at most 10 µM. As for `O=c1nc(OCc2cc(F)c(F)c(F)c2)cc2n1CC1OCCN21` (stereo not drawn) [Example E188, 6-((3,4,5-Trifluorobenzyl)oxy)-10,10a-dihydro-2H-oxazolo[3′,2′:3,4]imidazo[1,2-c]pyrimidin-8(3H)-one], the IC50 was at most 10 µM. With `O=c1nc(CCc2cccc(F)c2)cc2n1C[C@@H]1COCCN21` [Example E256, (R)-7-(3-fluorophenethyl)-3,4,11,11a-tetrahydropyrimido[6′,1′:2,3]imidazo[5,1-c][1,4]oxazin-9(1H)-one] the figure was at most 10 µM; with `O=c1nc(OCc2ccc(CN3CCCC(F)(F)C3)c(F)c2)cc2n1C[C@@H]1CCCCN21` [Example E205, (S)-3-((4-((3,3-difluoropiperidin-1-yl)methyl)-3-fluorobenzyl)oxy)-6,7,8,9,9a,10-hexahydro-1H-pyrido[1′,2′:3,4]imidazo[1,2-c]pyrimidin-1-one], at most 10 µM.
